The values that follow come from patent US8940738B2, “Pyrimidone compounds” (Mitsubishi Tanabe Pharma Corporation, priority 2009, dated 2015).

This experiment addresses bovine cerebral TPK1 (Bos taurus, UniProt A0A059UE90). As to the kind of experiment: Inhibitory activity against P-GS1 phosphorylation by bovine cerebral TPK1. It is filed as biochemical. Conditions: P-GS1 substrate, 41.7 μM [γ-32P] ATP, 25° C., 2 hours. The protocol: Experiment 1: Inhibitory Activity of the Medicament of the Present Invention Against P-GS1 Phosphorylation by Bovine Cerebral TPK1
A mixture containing 100 mM MES-sodium hydroxide (pH 6.5), 1 mM magnesium acetate, 0.5 mM EGTA, 5 mM β-mercaptoethanol, 0.02% Tween 20, 10% glycerol, 12 μg/ml P-GS1, 41.7 μM [γ^−32P] ATP (68 kBq/ml), bovine cerebral TPK1 and a compound shown in Table (a final mixture contained 1.7% DMSO deriving from a solution of a test compound prepared in the presence of 10% DMSO) was used as a reaction system. The phosphorylation was started by adding ATP, and the reaction was conducted at 25° C. for 2 hours, and then stopped by adding 21% perchloric acid on ice cooling. The reaction mixture was centrifuged at 12,000 rpm for 5 minutes and adsorbed on P81 paper (Whatmann), and then the paper was washed four times with 75 mM phosphoric acid, three times with water and once with acetone. The paper was dried, and the residual radioactivity was measured using a liquid scintillation counter.

Usually IC50 stands for the concentration that inhibits the measured activity by half. Low readings indicate greater potency in that assay, high ones weaker potency in that assay.

SMILES strings stand for the structures.

Chain of bovine cerebral TPK1 (A0A059UE90 1-419): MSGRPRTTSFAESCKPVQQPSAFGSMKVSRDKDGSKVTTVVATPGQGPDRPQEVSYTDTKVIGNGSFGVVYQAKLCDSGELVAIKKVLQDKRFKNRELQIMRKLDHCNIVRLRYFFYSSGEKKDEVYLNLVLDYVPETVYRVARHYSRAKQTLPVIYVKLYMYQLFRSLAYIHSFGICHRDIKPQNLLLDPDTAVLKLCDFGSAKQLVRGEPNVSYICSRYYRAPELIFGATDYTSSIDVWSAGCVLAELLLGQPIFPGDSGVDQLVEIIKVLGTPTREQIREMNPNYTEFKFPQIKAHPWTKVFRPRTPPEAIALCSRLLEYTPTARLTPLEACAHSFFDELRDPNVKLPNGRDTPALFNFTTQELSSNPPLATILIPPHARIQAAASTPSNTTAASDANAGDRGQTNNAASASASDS

In turn, `Cn1c(N2CCNC(c3ccc(C#N)cc3)C2)nc(-c2ncncc2F)cc1=O` (centres unmarked) [Compound 6, 4-[4-(5′-Fluoro-1-methyl-6-oxo-1,6-dihydro-[4,4′]bipyrimidinyl-2-yl)-piperazin-2yl]-benzonitrile] yielded an IC50 of 10.1 nM.

Compound `Cn1c(N2CCO[C@@H](c3ccc(F)cc3)C2)nc(-c2ncncc2F)cc1=O` [Compound 1, (S)-5′-fluoro-2-[2-(4-fluoro-phenyl)-morpholin-4-yl]-1-methyl-1H-[4,4′]bipyrimidinyl-6-one] gave an IC50 of 15.5 nM.
